Test results as given in ChEMBL document CHEMBL4000220, “Optimization of spirocyclic proline tryptophan hydroxylase-1 inhibitors” (Bioorg Med Chem Lett, 2017).

Tests used:
[1] = Drug metabolism in rat hepatocytes assessed as hydroxylation by measuring 8-(2-amino-6-((R)-1-(4-chloro-2-(3-(hydroxymethyl)-1H-pyrazol-1-yl)phenyl)-2,2,2-trifluoroethoxy)pyrimidin-4-yl)-2,8-diazaspiro[4.5]decane-3-carboxylic acid level by LC/UV/MS method; type: ADME, cell-based, Hepatocyte
[2] = Drug metabolism in rat hepatocytes assessed as 8-(2-amino-6-((R)-1-(2-(3-carboxy-1H-pyrazol-1-yl)-4-chlorophenyl)-2,2,2-trifluoroethoxy)pyrimidin-4-yl)-2,8-diazaspiro[4.5]decane-3-carboxylic acid formation by LC/UV/MS method; type: ADME, cell-based, Hepatocyte
[3] = Prodrug activation in rat hepatocytes assessed as ester hydrolysis by measuring 8-(2-amino-6-((R)-1-(4-chloro-2-(3-methyl-1H-pyrazol-1-yl)phenyl)-2,2,2-trifluoroethoxy)pyrimidin-4-yl)-2,8-diazaspiro[4.5]decane-3-carboxylic acid level by LC/UV/MS method; type: cell-based, Hepatocyte
[4] = Drug metabolism in rat hepatocytes assessed as 8-(2-amino-6-((R)-1-(4-chloro-2-(3-(sulfooxymethyl)-1H-pyrazol-1-yl)phenyl)-2,2,2-trifluoroethoxy)pyrimidin-4-yl)-2,8-diazaspiro[4.5]decane-3-carboxylic acid formation by LC/UV/MS method; type: ADME, cell-based, Hepatocyte

Drug metabolism [1]: Metabolite_Detected | Drug metabolism [2]: Metabolite_Detected | Drug metabolism [3]: Metabolite_Detected | Drug metabolism [4]: Metabolite_Detected
Compound: CCOC(=O)C1CC2(CCN(c3cc(O[C@H](c4ccc(Cl)cc4-n4ccc(C)n4)C(F)(F)F)nc(N)n3)CC2)CN1 (some centres undefined)
